Among the data in ChEMBL document CHEMBL1671824, “Synthesis and Evaluation of Fluorinated Aporphines: Potential Positron Emission Tomography Ligands for D2 Receptors” (ACS Med Chem Lett, 2011) are Ki values, retold here.

A value given as a limit tells only on which side of the number the result lay.

Test [1] concerns the target T1, D(1A) dopamine receptor (Rattus norvegicus, UniProt P18901). Briefly: Binding affinity to dopamine D1 receptor high binding site by radioligand displacement assay. In general terms: Displacement assays read how much labelled ligand stays bound in the presence of the test substance.
In test [2] the target is T2, D(3) dopamine receptor (Homo sapiens, UniProt P35462). The experiment in a line: Displacement of [3H]domperidone from human cloned dopamine D3 receptor expressed in mouse CCL1-3 cells by scintillation counting. Type of test: cell-based.
The target in test [3] is T2, D(3) dopamine receptor. Briefly: Displacement of [3H]domperidone from human cloned dopamine D3 receptor high binding site expressed in mouse CCL1-3 cells by scintillation counting. Format: cell-based.
Test [4] concerns the target T1, D(1A) dopamine receptor. The experiment in a line: Binding affinity to dopamine D1 receptor low binding site by radioligand displacement assay.
For another test, the target named is D(2) dopamine receptor (Rattus norvegicus, UniProt P61169). Briefly: Displacement of [3H]domperidone from dopamine D2 receptor low binding site in Sprague-Dawley rat striatum by scintillation counting.
Test [5] concerns the target T2, D(3) dopamine receptor. The experiment in a line: Displacement of [3H]domperidone from human dopamine D3 receptor expressed in human HEK293 cells by scintillation counting. Type of test: cell-based.

T2 sequence (P35462 whole entry): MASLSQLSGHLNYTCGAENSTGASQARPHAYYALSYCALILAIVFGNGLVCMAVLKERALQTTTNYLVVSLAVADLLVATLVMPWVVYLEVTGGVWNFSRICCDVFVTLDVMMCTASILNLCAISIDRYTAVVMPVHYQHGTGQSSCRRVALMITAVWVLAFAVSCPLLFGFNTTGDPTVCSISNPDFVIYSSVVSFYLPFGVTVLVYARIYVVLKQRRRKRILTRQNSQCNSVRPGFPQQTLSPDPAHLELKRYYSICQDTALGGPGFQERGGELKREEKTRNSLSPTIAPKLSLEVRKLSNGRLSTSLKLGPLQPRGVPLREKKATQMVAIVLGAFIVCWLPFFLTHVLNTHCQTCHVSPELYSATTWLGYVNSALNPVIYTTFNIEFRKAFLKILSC
T1 sequence (P18901 whole entry): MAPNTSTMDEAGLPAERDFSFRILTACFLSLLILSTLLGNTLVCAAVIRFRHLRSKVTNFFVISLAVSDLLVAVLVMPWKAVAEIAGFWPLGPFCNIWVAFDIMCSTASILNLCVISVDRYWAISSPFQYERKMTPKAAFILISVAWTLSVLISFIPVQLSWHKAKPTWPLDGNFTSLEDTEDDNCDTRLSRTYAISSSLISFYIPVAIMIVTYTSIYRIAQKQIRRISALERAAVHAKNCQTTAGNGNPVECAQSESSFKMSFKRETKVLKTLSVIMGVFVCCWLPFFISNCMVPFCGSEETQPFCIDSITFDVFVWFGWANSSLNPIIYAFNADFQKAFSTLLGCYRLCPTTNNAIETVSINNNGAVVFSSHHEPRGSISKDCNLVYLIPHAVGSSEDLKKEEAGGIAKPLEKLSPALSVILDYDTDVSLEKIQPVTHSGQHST
Chain of D(2) dopamine receptor (P61169 whole entry): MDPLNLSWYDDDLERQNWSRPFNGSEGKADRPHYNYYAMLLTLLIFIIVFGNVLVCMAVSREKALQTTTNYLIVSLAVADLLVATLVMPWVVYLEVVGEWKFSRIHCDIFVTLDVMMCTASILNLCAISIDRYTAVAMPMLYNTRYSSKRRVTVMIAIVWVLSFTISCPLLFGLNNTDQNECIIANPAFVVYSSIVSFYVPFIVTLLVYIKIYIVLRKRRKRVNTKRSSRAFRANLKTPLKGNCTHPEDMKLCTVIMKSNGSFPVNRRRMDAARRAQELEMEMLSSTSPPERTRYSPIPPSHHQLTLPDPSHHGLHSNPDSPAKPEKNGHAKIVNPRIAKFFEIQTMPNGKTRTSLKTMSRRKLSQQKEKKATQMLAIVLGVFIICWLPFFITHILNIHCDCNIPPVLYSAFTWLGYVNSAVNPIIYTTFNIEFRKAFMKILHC

Turning to `CCCN1CCc2cc(F)cc3c2[C@H]1Cc1ccc(O)c(O)c1-3`, the Ki (in general, a dissociation constant, usually derived from enzyme kinetics or from competition with a known ligand) was “Not Active” at D(1A) dopamine receptor [1], over 10 µM on D(3) dopamine receptor [2], 0.0038 µM at D(3) dopamine receptor [3] and over 5 µM on D(1A) dopamine receptor [4].
Turning to `Oc1cccc2c1-c1cccc3c1[C@@H](C2)N(CCCF)CC3`, the figures for the Ki result at D(1A) dopamine receptor [1] and at D(1A) dopamine receptor [4] were “Not Active” and over 5 µM, respectively.
Consider `CCCN1CCc2cc(OCCCF)cc3c2[C@H]1Cc1ccc(O)c(O)c1-3`, for which the inhibition constant Ki entry on D(1A) dopamine receptor [1] was “Not Active”; at D(3) dopamine receptor [3] it was 0.0011 µM; at D(1A) dopamine receptor [4], over 5 µM.
With `CCCN1CCc2cc(OCCF)cc3c2[C@H]1Cc1ccc(O)c(O)c1-3`, the Ki entry is “Not Active” on D(1A) dopamine receptor [1], 0.0019 µM at D(3) dopamine receptor [3] and over 5 µM on D(1A) dopamine receptor [4].
As for `CCN1CCc2cc(OCCCF)cc3c2[C@H]1Cc1ccc(O)c(O)c1-3`, the Ki result at D(1A) dopamine receptor [1] is “Not Active”; at D(3) dopamine receptor [2] it was over 10 µM; at D(3) dopamine receptor [3] it was 0.23 µM; on D(1A) dopamine receptor [4], over 5 µM.
Consider `CCN1CCc2cc(OCCF)cc3c2[C@H]1Cc1ccc(O)c(O)c1-3`, for which the Ki result was “Not Active” at D(1A) dopamine receptor [1], over 10 µM on D(3) dopamine receptor [2], 0.25 µM at D(3) dopamine receptor [3] and over 5 µM at D(1A) dopamine receptor [4].
Consider `CN1CCc2cc(OCCCF)cc3c2[C@H]1Cc1ccc(O)c(O)c1-3`, for which the Ki entry at D(1A) dopamine receptor [1] is “Not Active”; at D(3) dopamine receptor [2] it was over 10 µM; on D(2) dopamine receptor, over 10 µM; at D(1A) dopamine receptor [4], over 5 µM.
With `CN1CCc2cc(OCCF)cc3c2[C@H]1Cc1ccc(O)c(O)c1-3`, the Ki result is “Not Active” at D(1A) dopamine receptor [1], over 10 µM on D(3) dopamine receptor [2] and 3.7 µM at D(1A) dopamine receptor [4].
In the case of `CCCN1CCc2cc(OCCCF)cc3c2[C@H]1Cc1cccc(O)c1-3`, the values for the inhibitory constant (Ki) entry on D(1A) dopamine receptor [1] and at D(1A) dopamine receptor [4] were “Not Active” and over 5 µM, respectively.
As to `CCCN1CCc2cc(OCCF)cc3c2[C@H]1Cc1cccc(O)c1-3`, the results for the Ki result at D(1A) dopamine receptor [1] and at D(1A) dopamine receptor [4] were “Not Active” and over 5 µM, respectively.
The corresponding values for `CCN1CCc2cc(OCCCF)cc3c2[C@H]1Cc1cccc(O)c1-3` are “Not Active” and over 5 µM.
For `CCN1CCc2cc(OCCF)cc3c2[C@H]1Cc1cccc(O)c1-3`, the values for the Ki result at D(1A) dopamine receptor [1] and at D(1A) dopamine receptor [4] were “Not Active” and over 5 µM, respectively.
In the case of `CN1CCc2cc(OCCF)cc3c2[C@H]1Cc1cccc(O)c1-3`, at D(1A) dopamine receptor [1], the Ki result is given as “Not Active”.
Regarding `CCCN1CCc2cccc3c2[C@H]1Cc1cccc(O)c1-3`, the values for the Ki entry at D(1A) dopamine receptor [1] and on D(3) dopamine receptor [3] were “Not Active” and 0.0012 µM, respectively.
For the compound `CCCN1CCc2cc(OC)cc3c2[C@H]1Cc1cccc(O)c1-3`, the Ki result at D(1A) dopamine receptor [1] was “Not Active”; on D(3) dopamine receptor [2], over 10 µM; on D(3) dopamine receptor [3] it was 0.13 µM.
For `CCCN1CCc2cc(OC)cc3c2[C@H]1Cc1ccc(O)c(O)c1-3`, the Ki at D(3) dopamine receptor [5] was 0.00102 µM; on D(1A) dopamine receptor [4], over 5 µM.
